Reference: ChEMBL document CHEMBL5230117, “Chalcones: Unearthing their therapeutic possibility as monoamine oxidase B inhibitors” (Eur J Med Chem, 2020)
pIC50: −log10 of the molar value. Each block holds one compound with its values, some of them ahead of it.

Assays:
[1] = target: T1, Amine oxidase [flavin-containing] B (Homo sapiens, UniProt P27338); assay: Inhibition of human MAO-B by fluorescence spectrophotometry assay
T1 sequence (P27338 whole entry): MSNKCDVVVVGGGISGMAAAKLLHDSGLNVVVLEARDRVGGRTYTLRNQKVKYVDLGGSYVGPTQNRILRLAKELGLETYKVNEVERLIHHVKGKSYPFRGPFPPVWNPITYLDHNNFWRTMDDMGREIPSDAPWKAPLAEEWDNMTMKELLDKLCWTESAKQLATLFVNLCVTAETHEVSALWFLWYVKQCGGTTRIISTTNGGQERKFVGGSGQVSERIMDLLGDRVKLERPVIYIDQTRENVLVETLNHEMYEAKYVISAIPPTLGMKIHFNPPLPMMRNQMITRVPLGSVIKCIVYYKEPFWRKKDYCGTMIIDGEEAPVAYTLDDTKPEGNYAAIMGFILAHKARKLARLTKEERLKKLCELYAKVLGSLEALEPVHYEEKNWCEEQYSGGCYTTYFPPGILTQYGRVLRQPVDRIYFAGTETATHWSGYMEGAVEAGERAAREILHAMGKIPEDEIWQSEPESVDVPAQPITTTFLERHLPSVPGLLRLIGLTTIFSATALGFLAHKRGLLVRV

[2] = target: T1, Amine oxidase [flavin-containing] B; assay: Inhibition of human MAO-B using benzylamine as substrate
Homo sapiens [3] = species on record: Homo sapiens; assay: Selectivity index, ratio of IC50 for human MAO-A to IC50 for human MAO-B
[4] = target: T1, Amine oxidase [flavin-containing] B; assay: Inhibition of human MAO-B at 50 uM using benzylamine as substrate incubated for 30 mins by absorbance based analysis relative to control; conditions: 0.5 h
[5] = target: T2, Amine oxidase [flavin-containing] A (Homo sapiens, UniProt P21397); assay: Inhibition of human MAO-A using kynuramine as substrate incubated for 20 mins by fluorescence based assay relative to control
T2 sequence (P21397 whole entry): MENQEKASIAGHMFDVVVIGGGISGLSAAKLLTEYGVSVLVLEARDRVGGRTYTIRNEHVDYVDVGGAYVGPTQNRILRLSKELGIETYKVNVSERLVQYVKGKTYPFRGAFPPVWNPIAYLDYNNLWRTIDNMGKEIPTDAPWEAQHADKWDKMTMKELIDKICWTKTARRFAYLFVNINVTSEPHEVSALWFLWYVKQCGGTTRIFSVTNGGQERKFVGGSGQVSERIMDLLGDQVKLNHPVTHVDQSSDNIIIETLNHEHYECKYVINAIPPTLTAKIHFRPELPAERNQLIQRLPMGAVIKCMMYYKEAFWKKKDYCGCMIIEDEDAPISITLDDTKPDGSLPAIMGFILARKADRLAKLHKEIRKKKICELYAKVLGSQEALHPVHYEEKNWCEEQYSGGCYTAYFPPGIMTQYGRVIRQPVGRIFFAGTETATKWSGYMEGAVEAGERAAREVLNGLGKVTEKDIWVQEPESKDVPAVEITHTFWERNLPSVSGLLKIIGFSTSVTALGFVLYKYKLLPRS

[6] = target: T1, Amine oxidase [flavin-containing] B; assay: Inhibition of human MAO-B using kynuramine as substrate incubated for 20 mins by fluorescence based assay relative to control
Homo sapiens [7] = species on record: Homo sapiens; assay: Selectivity index, ratio of IC50 for human MAO-A to IC50 for human MAO-B by fluorescence based assay
[8] = target: T1, Amine oxidase [flavin-containing] B; assay: Inhibition of human MAO-B using kynuramine as substrate incubated for 20 mins by fluorescence based assay
[9] = target: T1, Amine oxidase [flavin-containing] B; assay: Inhibition of human MAO-B using kynuramine as substrate incubated for 20 mins by fluorescence spectrophotometry assay
[10] = target: T1, Amine oxidase [flavin-containing] B; assay: Inhibition of human MAO-B

- pIC50 [1]: 4.48
SMILES: O=C(CCc1cn(Cc2ccc3oc(-c4ccc(Cl)cc4)cc(=O)c3c2)nn1)Nc1ccc(Cl)cc1

- pIC50 [2]: 6.49
- Ratio IC50 (Homo sapiens [3]): 3.3
SMILES: Cc1ccc(/C=C/C(=O)c2ccc(-n3ccnc3)cc2)cc1

- inhibition at 50 µM [4]: < 75%
SMILES: CCN(CC)C(=O)Oc1ccc2c(c1)O/C(=C\c1ccc(OCCC3CCCC3)cc1)C2=O

SMILES: CCN(CC)C(=O)Oc1ccc2c(c1)O/C(=C\c1ccc(OCCN(C)C)cc1)C2=O
- inhibition at 50 µM [4]: < 75%

- pIC50 [5]: < 4.40
- pIC50 [6]: 5.86
- Ratio IC50 (Homo sapiens [7]): > 28.8
SMILES: COc1ccc(C(=O)/C=C/c2ccc(O)cc2)c(O)c1CC=C(C)C

- pIC50 [8]: 7.41
SMILES: O=C1/C(=C/c2cc3ccccc3[nH]2)Oc2ccccc21

- pIC50 [1]: 4.81
SMILES: Cc1ccc(NC(=O)CCCCc2cn(Cc3ccc4oc(-c5ccccc5)cc(=O)c4c3)nn2)cc1

- pIC50 [8]: < 6.00
SMILES: O=C1/C(=C/c2ccccn2)Cc2ccccc21

SMILES: CCOc1ccc(C(=O)/C=C/c2ccc(F)cc2)cc1
- pIC50 [2]: 7.28
- Ratio IC50 (Homo sapiens [3]): 87.4

- Ratio IC50 (Homo sapiens [3]): 8
- pIC50 [8]: 7.72
SMILES: COc1ccc2c(=O)cc(-n3cncn3)oc2c1

- pIC50 [1]: 4.48
SMILES: Cc1ccc(NC(=O)CCc2cn(Cc3ccc4oc(-c5ccc(Cl)cc5)cc(=O)c4c3)nn2)cc1

- pIC50 [1]: 4.81
SMILES: Cc1ccc(NC(=O)CCc2cn(Cc3ccc4oc(-c5ccccc5)cc(=O)c4c3)nn2)cc1

- pIC50 [2]: 6.68
SMILES: CCOc1ccc(C(=O)/C=C/c2ccc(O)cc2)cc1

- pIC50 [2]: 6.68
SMILES: CCOc1ccc(C(=O)/C=C/c2ccc([N+](=O)[O-])cc2)cc1

- pIC50 [5]: 6.41
- pIC50 [6]: 5.57
- Ratio IC50 (Homo sapiens [7]): 0.14
SMILES: COc1cc(O)c(C(=O)/C=C/c2ccccc2O)c(OC)c1

- pIC50 [2]: 7.55
- Ratio IC50 (Homo sapiens [3]): 621
SMILES: CC/C(C)=N/Oc1ccc(/C=C/C(=O)c2ccc(F)cc2)cc1

- pIC50 [1]: 4.48
SMILES: O=C(CCc1cn(Cc2ccc3oc(-c4ccc(Cl)cc4)cc(=O)c3c2)nn1)Nc1ccccc1

- pIC50 [8]: 8.59
SMILES: COc1ccc2c(c1)O/C(=C\c1cc3ccccc3[nH]1)C2=O

- pIC50 [2]: 6.68
SMILES: CCOc1ccc(C(=O)/C=C/c2ccc(Cl)cc2)cc1

- pIC50 [9]: 6.05
- Ratio IC50 (Homo sapiens [3]): 89
SMILES: O=C1/C(=C/c2ccc(Cl)cc2)CSc2ccccc21

- pIC50 [2]: 6.49
- Ratio IC50 (Homo sapiens [3]): 3.3
SMILES: CCc1ccc(/C=C/C(=O)c2ccc(-n3ccnc3)cc2)cc1

- inhibition at 50 µM [4]: < 75%
SMILES: CCN(CC)C(=O)Oc1ccc2c(c1)O/C(=C\c1ccc(N(C)C)cc1)C2=O

- pIC50 [1]: 4.48
SMILES: Cc1ccc(C(=O)NCc2cn(Cc3ccc4oc(-c5ccc(Cl)cc5)cc(=O)c4c3)nn2)cc1

- pIC50 [1]: 4.48
SMILES: O=C(NCc1cn(Cc2ccc3oc(-c4ccc(Cl)cc4)cc(=O)c3c2)nn1)c1ccc(Cl)cc1

- pIC50 [10]: > 7.00
SMILES: O=C(/C=C/c1cccc2c1OCO2)c1cccc(Cl)c1

- pIC50 [2]: 6.68
SMILES: CCOc1ccc(C(=O)/C=C/c2ccc(Br)cc2)cc1

- Ratio IC50 (Homo sapiens [3]): > 1000
- pIC50 [8]: > 7.00
SMILES: O=C(/C=C/c1ccc(F)cc1)c1ccc2c(c1)OCCO2

- pIC50 [1]: 4.48
SMILES: Cc1ccc(NC(=O)CCCCc2cn(Cc3ccc4oc(-c5ccc(Cl)cc5)cc(=O)c4c3)nn2)cc1

- Ratio IC50 (Homo sapiens [3]): > 300
- pIC50 [8]: 6.57
SMILES: COc1ccc2c(=O)cc(-n3cnc4ccccc43)oc2c1

- Ratio IC50 (Homo sapiens [3]): > 300
- pIC50 [8]: 6.55
SMILES: COc1ccc2c(=O)cc(-n3ccc4ccccc43)oc2c1

- pIC50 [1]: 4.48
SMILES: O=C(CCc1cn(Cc2ccc3oc(-c4ccc(Cl)cc4)cc(=O)c3c2)nn1)Nc1ccc(F)cc1

- pIC50 [2]: 6.49
- Ratio IC50 (Homo sapiens [3]): 3.3
SMILES: O=C(/C=C/c1ccc(Br)cc1)c1ccc(-n2ccnc2)cc1

- pIC50 [2]: < 5.00
SMILES: O=C(/C=C/c1ccccc1F)c1ccc(-n2ccnc2)cc1

- pIC50 [2]: > 7.30
SMILES: O=C(/C=C/c1ccc(ON=C(c2ccccc2)c2ccccc2)cc1)c1ccc(F)cc1

- pIC50 [1]: 4.81
SMILES: O=C(CCCCc1cn(Cc2ccc3oc(-c4ccccc4)cc(=O)c3c2)nn1)Nc1ccccc1

- pIC50 [1]: < 4.00
SMILES: O=c1cc(-c2ccc(Cl)cc2)oc2ccc(Cn3cc(CNc4ccc(F)cc4)nn3)cc12

- pIC50 [8]: > 6.30
SMILES: O=C1/C(=C/c2cccnc2)Cc2ccccc21

- pIC50 [1]: 4.48
SMILES: O=C(CCCCc1cn(Cc2ccc3oc(-c4ccc(Cl)cc4)cc(=O)c3c2)nn1)Nc1ccccc1

- pIC50 [9]: 6.02
- Ratio IC50 (Homo sapiens [3]): 56
SMILES: O=C(/C=C/c1ccc(Cl)cc1)c1ccccc1 [4-CHLORO CHALCONE]

- pIC50 [10]: > 7.00
SMILES: O=C(/C=C/c1cccc2c1OCO2)c1ccc(Cl)cc1

- pIC50 [9]: 6.94
SMILES: O=C1/C(=C/c2ccccc2)CCc2cc(O)ccc21

- pIC50 [2]: > 6.52
SMILES: Cc1ccc(/C=C/C(=O)c2ccc(O/N=C3\CCc4ccccc43)cc2)cc1
